How the values were obtained:
[1] = Antioxidant activity assessed as trolox equivalent of ferric ion reducing activity using fe3+-TPTZ after 4 mins by FRAP assay; assay type: functional
[2] = Antioxidant activity assessed as trolox equivalent of DPPH scavenging activity after 4 mins by spectrophotometry; assay type: functional

Row | SMILES | Activity [1] [equiv] | Activity [2] [equiv]
1 | O=c1c(O)c(-c2ccc(O)cc2)oc2cc(O)cc(O)c12 | 2.36 | 2.4
2 | O=c1c(O[C@@H]2O[C@H](CO)[C@@H](O)[C@H](O)[C@H]2O)c(-c2ccc(O)c(O)c2)oc2cc(O)cc(O)c12 | 0.56 | 0.56
3 | O=C(CCc1ccc(O)c(O)c1)c1c(O)cc(O)cc1O | 0.64 | 0.88
4 | Oc1cc(O)c2c(c1)OC(c1ccc(O)c(O)c1)C(O)C2 (stereo not given) | 0.56 | 0.44
5 | C[C@@H]1O[C@@H](Oc2cc(O)cc(O)c2C(=O)CCc2ccc(O)c(O)c2)[C@H](O)[C@H](O)[C@H]1O | 0.72 | 0.48
